Measured values from patent publication US8992982B2, “Formulation of indomethacin” (Iceutica Pty Ltd., priority 2009, dated 2015).

Legend:
Type in all cases: in vivo, human
[1] = Phase 2 dental pain study: safety (TEAEs, vital signs); conditions: Safety population
Method: Efficacy was assessed during the 8 hours after Time 0. Safety was assessed by the incidence of treatment-emergent AEs (TEAEs) and changes in vital sign measurements.
The safety endpoints were the incidence of TEAEs and changes in vital sign measurements.
Protocol-specified safety data were provided in by-subject listings. The Medical Dictionary for Regulatory Activities (MedDRA) (version 11.0) was used to classify all AEs with respect to system organ class and preferred term. Adverse event summaries included only TEAEs, which were summarized by incidence, severity, and relationship to study drug for each treatment group. The Cochran-Mantel-Haenszel test was used to compare the rates of occurrence between the placebo and Indomethacin Nanoformulation Capsule groups for all TEAEs. A list of AEs leading to study discontinuation, along with the summaries described above, was also provided.
Vital sign measurements were summarized using descriptive statistics (mean, standard deviation [SD], median, minimum, and maximum) at each scheduled time point for each treatment group. Changes from Baseline for vital signs were calculated for each subject and summarized for each treatment group at each scheduled time point after Baseline. No formal statistical tests were performed.

[2] = test system: pain after surgical removal of impacted third molars; assay: Phase 2 dental pain study: use of rescue medication (proportion of subjects, time to first use); conditions: 400 mg
Method: (§1) Subjects assessed their baseline pain intensity (VAS) before receiving study drug (predose, Time 0) and their pain intensity (VAS) and pain relief (5-point categorical scale) at 15, 30, and 45 minutes and 1, 1.5, 2, 3, 4, 5, 6, 7, and 8 hours after Time 0 and immediately before the first dose of rescue medication. The 2-stopwatch method was used to record the time to perceptible and time to meaningful pain relief, respectively. Acetaminophen (1000 mg) was permitted as the initial rescue medication. Subjects were encouraged to wait at least 60 minutes after receiving study drug before taking rescue medication. […] Other restrictions included the following: no alcohol use from 24 hours before surgery until discharge on Day 1; nothing by mouth (NPO) from midnight before surgery until 1 hour after surgery; clear liquids only from 1 hour after surgery until 1 hour after dosing; and advancement of diet 1 hour after dosing according to standard practice.
(§2) The secondary efficacy endpoints were as follows: • TOTPAR over 0 to 4 hours (TOTPAR-4) after Time 0 • Visual Analogue Scale (VAS) pain intensity difference (VASPID) at each scheduled time point after Time 0 • Time to onset of analgesia (measured as time to perceptible pain relief confirmed by meaningful pain relief) • VAS pain intensity score at each scheduled time point • VAS summed pain intensity difference (VASSPID) over 0 to 4 hours (VASSPID-4) and over 0 to 8 hours (VASSPID-8) after Time 0 • Pain relief score at each scheduled time point after Time 0 • Peak pain relief • Time to peak pain relief • Time to first perceptible pain relief • Time to meaningful pain relief • Proportion of subjects using rescue medication • Time to first use of rescue medication (duration of analgesia) • Patient's global evaluation of study drug Safety:
(§3) For each time-to-event endpoint, the Kaplan-Meier method was used to evaluate the treatment effect. Time to onset of analgesia (measured as time to perceptible pain relief confirmed by meaningful pain relief) was based on data collected using the 2-stopwatch method. […] A summary table provided the number of subjects analyzed, the number of subjects censored, estimates for the quartiles, and 95% confidence intervals (CIs) for the estimated median. P values from log-rank tests were also used to examine treatment effect. Cox proportional hazard models were used to explore potential covariates such as sex, baseline pain intensity, and surgical trauma rating, if appropriate.
For the proportion of subjects using rescue medication, a logistic regression model that adjusted for baseline pain intensity was used to evaluate the treatment effect. Subgroup analysis by sex was performed if sex was confirmed to be a statistically significant covariate for TOTPAR-8. Baseline values were defined as the last measurements taken before dosing with a study drug.

[3] = test system: pain after surgical removal of impacted third molars; assay: Phase 2 dental pain study: 2-stopwatch method (time to onset of analgesia, first perceptible and meaningful pain relief); conditions: ITT
Method: as §1, §2, §3

[4] = test system: pain after surgical removal of impacted third molars; assay: Phase 2 dental pain study: patient's global evaluation of study drug; conditions: 400 mg; ITT
Method: as §2
For ordinal secondary endpoints such as pain relief at each scheduled time point, peak pain relief, and global evaluation of study drug, descriptive summaries including the number and percentage of subjects within each category were provided for each treatment group. Nominal P values from Cochran-Mantel-Haenszel tests comparing the placebo group with other treatment groups were provided, but no formal statistical inferences were drawn on the basis of these tests.

**Q.** What does the source list for `Cc1ccc(-c2cc(C(F)(F)F)nn2-c2ccc(S(N)(=O)=O)cc2)cc1` [Celecoxib]?
**A.** Subjects with ≧1 severe TEAE [1]: (5.9) %; Subjects with ≧1 treatment-related TEAE [1]: (2.0) %; Subjects who died ([1]; n): 0; Subjects who discontinued due to a TEAE ([1]; n): 0; Subjects with ≧1 SAE ([1]; n): 0; Hazard ratio vs placebo, Cox proportional hazards model (time to first use of rescue medication) [2]: 0.2; Time to first use of rescue medication: subjects analyzed, % [2]: (41.2) %; Time to first use of rescue medication: subjects censored, % [2]: (58.8) %; Time to first use of rescue medication, Mean ([2]; Kaplan-Meier estimate): 4.7 h; Time to first use of rescue medication, Q25 ([2]; Kaplan-Meier estimate): 3.30 h; Hazard ratio vs placebo, Cox proportional hazards model (time to first perceptible pain relief) ([3]; 400 mg): 1.7; Hazard ratio vs placebo, Cox proportional hazards model (time to meaningful pain relief) ([3]; 400 mg): 3.2; Time to first perceptible pain relief: subjects analyzed, % ([3]; 400 mg): (92.2) %; Time to first perceptible pain relief: subjects censored, % ([3]; 400 mg): (7.8) %; Time to meaningful pain relief: subjects analyzed, % ([3]; 400 mg): (68.6) %; Time to meaningful pain relief: subjects analyzed, n ([3]; 400 mg): 35; Time to meaningful pain relief: subjects censored, % ([3]; 400 mg): (31.4) %; Time to meaningful pain relief: subjects censored, n ([3]; 400 mg): 16; Time to onset of analgesia, Hazard ratio ([3]; Cox proportional hazards model, vs placebo): 4.4; Time to onset of analgesia: subjects analyzed [3]: (68.6) %; Time to first perceptible pain relief, Mean ([3]; Kaplan-Meier estimate, 400 mg): 0.9 h; Time to first perceptible pain relief, Q25 ([3]; Kaplan-Meier estimate, 400 mg): 0.35 h; Time to first perceptible pain relief, Q50 ([3]; Kaplan-Meier estimate, 400 mg): 0.60 h; Time to first perceptible pain relief, Q75 ([3]; Kaplan-Meier estimate, 400 mg): 0.97 h; Time to meaningful pain relief, Mean ([3]; Kaplan-Meier estimate, 400 mg): 2.6 h; Time to meaningful pain relief, Q25 ([3]; Kaplan-Meier estimate, 400 mg): 0.75 h; Time to meaningful pain relief, Q50 ([3]; Kaplan-Meier estimate, 400 mg): 1.33 h; Time to meaningful pain relief, Q75 ([3]; Kaplan-Meier estimate, 400 mg): 4.27 h; Time to onset of analgesia, Mean ([3]; Kaplan-Meier estimate): 0.9 h; Time to onset of analgesia, Q25 ([3]; Kaplan-Meier estimate): 0.38 h; Time to onset of analgesia, Q50 ([3]; Kaplan-Meier estimate): 0.72 h; Time to onset of analgesia: subjects censored ([3]; right-censored at 8 hours): (31.4) %; Patient's global evaluation of study drug: Excellent, % [4]: (15.7) %; Patient's global evaluation of study drug: Fair, % [4]: (17.6) %; Patient's global evaluation of study drug: Good, % [4]: (19.6) %; Patient's global evaluation of study drug: Poor, % [4]: (11.8) %; Patient's global evaluation of study drug: Very Good, % [4]: (35.3) %
